Molecular target: T1, human GPR40 (Homo sapiens, UniProt O14842)
T1 construct: expressed in transfected cells; host or cells: HEK cells stably expressing the aequorin reporter
Test: Inositol Phosphate Turnover (IP1) Assay 2
Format: cell-based
Conditions: HEK cells stably expressing human GPR40; 15,000 cells per well; compound acoustically transferred; CisBio IP-One kit
Description: Human and mouse GPR40 stable cell-lines were generated in CHO cells stably expressing NFAT BLA (Beta-lactamase). A human GPR40 stable cell-line was generated in HEK cells stably expressing the aequorin expressing reporter. The expression plasmids were transfected using lipofectamine (Life Technologies) following manufacturer's instructions. Stable cell-lines were generated following drug selection.
Inositol Phosphate Turnover (IP1) Assay 2:
The assay was performed in 384-well format. HEK cells stably expressing human GPR40 were plated at 15,000 cells per well in growth medium (DMEM/10% fetal calf serum). Cell plates were then incubated 16 hours at 37 degrees in a 5% CO2 incubator.
Measurement of Inositol Phosphate Turnover (IP1) was performed using the CisBio IP-One kit (Part number 62IPAPEB). After the 16 hour incubation, the cells were washed with HEPES buffer and 10 ul of stimulation buffer (prepared as described in the kit) was added to each well. In a separate plate, compounds were diluted in DMSO (400-fold over the final concentration in the assay well) and 25 nl was acoustically transferred to the appropriate well in the assay cell plate. The plates were then incubated for 60 minutes at 37 degrees. 10 ul of detection buffer (also prepared as described in the IP-One kit) was added to each well and the plates were incubated for 60 minutes in the dark. The plates were then read in a Perkin Elmer EnVision or equivalent reader able to measure FRET. Fluorescent ratio of emission at 665 and 620 nm was then converted to IP1 concentration by back calculating from an IP1 standard curve prepared at the time of the assay.

T1 sequence (O14842 whole entry): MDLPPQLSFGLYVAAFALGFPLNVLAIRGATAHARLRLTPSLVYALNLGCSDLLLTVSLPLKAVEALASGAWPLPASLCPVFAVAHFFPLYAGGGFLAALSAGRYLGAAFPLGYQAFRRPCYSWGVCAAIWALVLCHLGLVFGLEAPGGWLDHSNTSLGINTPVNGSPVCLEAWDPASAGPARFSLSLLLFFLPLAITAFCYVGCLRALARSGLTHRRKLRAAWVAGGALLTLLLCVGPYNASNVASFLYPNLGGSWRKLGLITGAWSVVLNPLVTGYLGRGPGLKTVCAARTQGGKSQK

Q: Which EC50 does the source give for COc1cc(-c2ccc(C3CCc4ccc([C@H](C5CC5)[C@H](C)C(=O)O)cc4O3)cc2CN2CCCC2)c(C#N)cn1 (mixture of isomers) [Example 78, (2S,3R)-3-(2-(4-(5-cyano-2-methoxypyridin-4-yl)-3-(pyrrolidin-1-ylmethyl)phenyl)chroman-7-yl)-3-cyclopropyl-2-methylpropanoic acid] here?
A: 8 nM

Q: With COc1cc(-c2ccc(C3CCc4ccc([C@H](C5CC5)[C@H](C)C(=O)O)cc4O3)c(CN3CCCC3)c2)ccn1 (mixture of isomers) [Example 112] as the molecule, how does the EC50 read?
A: 5.6 nM

Q: CCOc1cc(-c2ccc(C3CCc4ccc([C@H](C5CC5)[C@H](C)C(=O)O)cc4O3)cc2CN2CCCC2)c(Cl)cn1 (mixture of isomers) [Example 216] was tested. Which EC50 did it give?
A: 86 nM

Q: With CCOc1cc(-c2ccc(C3CCc4ccc([C@H](C5CC5)[C@H](C)C(=O)O)cc4O3)cc2CN2CCCC2)c(F)cn1 (mixture of isomers) [Example 74, (2S,3R)-3-cyclopropyl-3-(2-(4-(2-ethoxy-5-fluoropyridin-4-yl)-3-(pyrrolidin-1-ylmethyl)phenyl)chroman-7-yl)-2-methylpropanoic acid] as the molecule, how does the EC50 read?
A: 9.3 nM

Q: How did the EC50 turn out when COc1cc(-c2ccc(C3CCc4ccc([C@H](C5CC5)[C@H](C)C(=O)O)cc4O3)cc2CN(C)C)c(F)cn1 (single isomer, unassigned) [Example 1a] was run?
A: 2.3 nM

Q: For COc1cc(-c2ccc(C3CCc4ccc([C@H](C5CC5)[C@H](C)C(=O)O)cc4O3)cc2CN(C)C)c(F)cn1 (single isomer, unassigned) [Example 1b], which EC50 is on record?
A: 2.9 nM

Q: How did the EC50 turn out when COc1cc(-c2ccc(C3CCc4ccc([C@H](C5CC5)[C@H](C)C(=O)O)cc4O3)cc2CN2CCCC2)c(F)cn1 (single isomer, unassigned) [Example 9a] was run?
A: 3.9 nM

Q: With COc1cc(-c2ccc(C3CCc4ccc([C@H](C5CC5)[C@H](C)C(=O)O)cc4O3)cc2CN2CCCC2)c(F)cn1 (single isomer, unassigned) [Example 9b] as the molecule, how does the EC50 read?
A: 3.4 nM

Q: For COc1cc(-c2ccc(C3CCc4ccc([C@H](C5CC5)[C@H](C)C(=O)O)cc4O3)cc2CN2CCOCC2)c(F)cn1 (single isomer, unassigned) [Example 11a], which EC50 is on record?
A: 1.7 nM

Q: Which EC50 does the source give for COc1cc(-c2ccc(C3CCc4ccc([C@H](C5CC5)[C@H](C)C(=O)O)cc4O3)cc2CN2CCOCC2)c(F)cn1 (single isomer, unassigned) [Example 11b] here?
A: 2.4 nM

Q: Which EC50 does the source give for COc1cc(-c2ccc(C3CCc4ccc([C@H](C5CC5)[C@H](C)C(=O)O)cc4O3)cc2CN(C)CC(F)(F)F)c(F)cn1 (single isomer, unassigned) [Example 21] here?
A: 0.76 nM

Q: For COc1cc(-c2ccc(C3CCc4ccc([C@H](C5CC5)[C@H](C)C(=O)O)cc4O3)cc2CN(C)CC(F)(F)F)c(F)cn1 (single isomer, unassigned) [Example 22], which EC50 is on record?
A: 0.46 nM

Q: For COc1cc(-c2ccc(C3CCc4ccc([C@H](C5CC5)[C@H](C)C(=O)O)cc4O3)cc2CN2CC[C@@H](F)C2)c(F)cn1 (single isomer, unassigned) [Example 23], which EC50 is on record?
A: 1.7 nM

Q: COc1cc(-c2ccc(C3CCc4ccc([C@H](C5CC5)[C@H](C)C(=O)O)cc4O3)cc2CN2CC[C@@H](F)C2)c(F)cn1 (single isomer, unassigned) [Example 24] was tested. Which EC50 did it give?
A: 2.2 nM

Q: With COc1cc(-c2ccc(C3CCc4ccc([C@H](C5CC5)[C@H](C)C(=O)O)cc4O3)cc2CN2CC[C@H](F)C2)c(F)cn1 (single isomer, unassigned) [Example 25] as the molecule, how does the EC50 read?
A: 2.3 nM

Q: COc1cc(-c2ccc(C3CCc4ccc([C@H](C5CC5)[C@H](C)C(=O)O)cc4O3)cc2CN2CC[C@H](F)C2)c(F)cn1 (single isomer, unassigned) [Example 26] was tested. Which EC50 did it give?
A: 2.5 nM

Q: Which EC50 does the source give for COc1cc(-c2ccc(C3CCc4ccc([C@H](C5CC5)[C@H](C)C(=O)O)cc4O3)cc2CN2CC[C@@H](C(F)(F)F)C2)c(F)cn1 (single isomer, unassigned) [Example 27] here?
A: 1.5 nM

Q: For COc1cc(-c2ccc(C3CCc4ccc([C@H](C5CC5)[C@H](C)C(=O)O)cc4O3)cc2CN2CC[C@@H](C(F)(F)F)C2)c(F)cn1 (single isomer, unassigned) [Example 28], which EC50 is on record?
A: 1.4 nM

Q: Which EC50 does the source give for COc1cc(-c2ccc(C3CCc4ccc([C@H](C5CC5)[C@H](C)C(=O)O)cc4O3)cc2CN2CC[C@H](C(F)(F)F)C2)c(F)cn1 (single isomer, unassigned) [Example 29] here?
A: 0.8 nM

Q: For COc1cc(-c2ccc(C3CCc4ccc([C@H](C5CC5)[C@H](C)C(=O)O)cc4O3)cc2CN2CC[C@H](C(F)(F)F)C2)c(F)cn1 (single isomer, unassigned) [Example 30], which EC50 is on record?
A: 1.5 nM

Q: COc1cc(-c2ccc(C3CCc4ccc([C@H](C5CC5)[C@H](C)C(=O)O)cc4O3)cc2CN2CCC(F)(F)C2)c(F)cn1 (single isomer, unassigned) [Example 31] was tested. Which EC50 did it give?
A: 0.95 nM

Q: For COc1cc(-c2ccc(C3CCc4ccc([C@H](C5CC5)[C@H](C)C(=O)O)cc4O3)cc2CN2CCC(F)(F)C2)c(F)cn1 (single isomer, unassigned) [Example 32], which EC50 is on record?
A: 0.84 nM

Q: How did the EC50 turn out when COc1cc(-c2ccc(C3CCc4ccc([C@H](C5CCC5)[C@H](C)C(=O)O)cc4O3)cc2CN2CCCC2)c(F)cn1 (single isomer, unassigned) [Example 92] was run?
A: 4 nM

Q: Which EC50 does the source give for COc1cc(-c2ccc(C3CCc4ccc([C@H](C5CCC5)[C@H](C)C(=O)O)cc4O3)cc2CN2CCCC2)c(F)cn1 (single isomer, unassigned) [Example 93] here?
A: 2.9 nM

Q: With COc1cc(-c2ccc(C3CCc4ccc([C@H](C5CCC5)[C@H](C)C(=O)O)cc4O3)cc2CN(C)C)c(F)cn1 (single isomer, unassigned) [Example 94] as the molecule, how does the EC50 read?
A: 1.8 nM

Q: COc1cc(-c2ccc(C3CCc4ccc([C@H](C5CCC5)[C@H](C)C(=O)O)cc4O3)cc2CN(C)C)c(F)cn1 (single isomer, unassigned) [Example 95] was tested. Which EC50 did it give?
A: 1.8 nM

Q: With COc1cc(-c2ncc([C@@H]3CCc4ccc([C@H](C5CC5)[C@H](C)C(=O)O)cc4O3)nc2CN2CCCC2)c(F)cn1 (single isomer, unassigned) [Example 110a] as the molecule, how does the EC50 read?
A: 446 nM

Q: For COc1cc(-c2ncc([C@H]3CCc4ccc([C@H](C5CC5)[C@H](C)C(=O)O)cc4O3)nc2CN2CCCC2)c(F)cn1 (single isomer, unassigned) [Example 110b], which EC50 is on record?
A: 139 nM

Q: Which EC50 does the source give for COc1cc(-c2ccc(C3CCc4ccc([C@H](C5CC5)[C@H](C)C(=O)O)cc4O3)cc2CN2CC[C@@H](S(C)(=O)=O)C2)c(F)cn1 (some centres unmarked) [Example 5] here?
A: 660 nM

Q: With COc1cc(-c2ccc(C3CCc4ccc([C@H](C5CC5)[C@H](C)C(=O)O)cc4O3)cc2CN2CC[C@H](S(C)(=O)=O)C2)c(F)cn1 (some centres unmarked) [Example 6] as the molecule, how does the EC50 read?
A: 227 nM

Q: Which EC50 does the source give for COc1cc(-c2ccc(C3CCc4ccc([C@H](C5CC5)[C@H](C)C(=O)O)cc4O3)cc2CN2CC[C@H](O)C2)c(F)cn1 (some centres unmarked) [Example 7] here?
A: 118 nM

Q: With COc1cc(-c2ccc(C3CCc4ccc([C@H](C5CC5)[C@H](C)C(=O)O)cc4O3)cc2CN2CC[C@@H](O)C2)c(F)cn1 (some centres unmarked) [Example 8] as the molecule, how does the EC50 read?
A: 238 nM

Q: COc1cc(-c2ccc(C3CCc4ccc([C@H](C5CC5)[C@H](C)C(=O)O)cc4O3)cc2CN2CCC(C(F)(F)F)C2)c(F)cn1 (some centres unmarked) [Example 14] was tested. Which EC50 did it give?
A: 0.87 nM

Q: For COc1cc(-c2ccc(C3CCc4ccc([C@H](C5CC5)[C@H](C)C(=O)O)cc4O3)cc2CN2CC[C@H](F)C2)c(F)cn1 (some centres unmarked) [Example 15], which EC50 is on record?
A: 1.1 nM

Q: COc1cc(-c2ccc(C3CCc4ccc([C@H](C5CC5)[C@H](C)C(=O)O)cc4O3)cc2CN2CC[C@@H](F)C2)c(F)cn1 (some centres unmarked) [Example 16] was tested. Which EC50 did it give?
A: 2.3 nM

Q: COc1cc(-c2ccc(C3CCc4ccc([C@H](C5CC5)[C@H](C)C(=O)O)cc4O3)cc2CN2CC[C@@H](OC)C2)c(F)cn1 (some centres unmarked) [Example 18] was tested. Which EC50 did it give?
A: 11 nM

Q: Which EC50 does the source give for COc1cc(-c2ccc(C3CCc4ccc([C@H](C5CC5)[C@H](C)C(=O)O)cc4O3)cc2CN2CC[C@H](OC)C2)c(F)cn1 (some centres unmarked) [Example 19] here?
A: 6.4 nM

Q: How did the EC50 turn out when COc1cc(-c2ccc(C3CCc4ccc([C@H](C5CC5)[C@H](C)C(=O)O)cc4O3)cc2CN(C)CC(F)(F)F)c(F)cn1 (some centres unmarked) [Example 20] was run?
A: 0.84 nM

Q: Which EC50 does the source give for CNCc1cc([C@@H]2CCc3ccc([C@H](C4CC4)[C@H](C)C(=O)O)cc3O2)ccc1-c1cc(OC)ncc1F [Example 34, Sodium (2S,3R)-3-cyclopropyl-3-((S)-2-(4-(5-fluoro-2-methoxypyridin-4-yl)-3-((methylamino)methyl)phenyl)chroman-7-yl)-2-methylpropanoate] here?
A: 1.9 nM

Q: With COC[C@@H]1CCCN1Cc1cc(C2CCc3ccc([C@H](C4CC4)[C@H](C)C(=O)O)cc3O2)ccc1-c1cc(OC)ncc1F (some centres unmarked) [Example 36] as the molecule, how does the EC50 read?
A: 2.1 nM

Q: How did the EC50 turn out when COc1cc(-c2ccc(C3CCc4ccc([C@H](C5CC5)[C@H](C)C(=O)O)cc4O3)cc2CN2C3CCC2CC(OC)C3)c(F)cn1 (some centres unmarked) [Example 37] was run?
A: 4.7 nM

Q: For COc1cc(-c2ccc(C3CCc4ccc([C@H](C5CC5)[C@H](C)C(=O)O)cc4O3)cc2CN2CCC[C@@H]2C)c(F)cn1 (some centres unmarked) [Example 38], which EC50 is on record?
A: 1.8 nM

Q: With COc1cc(-c2ccc(C3CCc4ccc([C@H](C5CC5)[C@H](C)C(=O)O)cc4O3)cc2CN2CCC3OCCC32)c(F)cn1 (some centres unmarked) [Example 39] as the molecule, how does the EC50 read?
A: 2.1 nM

Q: How did the EC50 turn out when COc1cc(-c2ccc(C3CCc4ccc([C@H](C5CC5)[C@H](C)C(=O)O)cc4O3)cc2CN2CCC3(CCCO3)C2)c(F)cn1 (some centres unmarked) [Example 41] was run?
A: 13 nM
